Test results as given in the supplement of paper PMC13380429.

Key:
Settings in all cases: 72 h
Caco-2 [1] = assay: cell viability relative to DMSO; higher = less toxic
Calu-3 [2] = assay: as above
HepG2 [3] = assay: as above
U2OS [4] = assay: as above
Vero E6 [5] = assay: as above
Caco-2 [6] = assay: relative viability EC50 (midpoint between 100% and the lowest measured viability); higher = less toxic
Calu-3 [7] = assay: as above
HepG2 [8] = assay: as above
U2OS [9] = assay: as above
Vero E6 [10] = assay: as above
Caco-2 [11] = assay: drug sensitivity score (DSS) for viability; higher = more toxic; extreme values may be limits of the assay
Calu-3 [12] = assay: as above
HepG2 [13] = assay: as above
U2OS [14] = assay: as above
Vero E6 [15] = assay: as above

| Structure (SMILES) | cell viability (Caco-2 [1]; 1 nM) [%] | cell viability (Caco-2 [1]; 10 nM) [%] | cell viability (Caco-2 [1]; 100 nM) [%] | cell viability (Caco-2 [1]; 1000 nM) [%] | cell viability (Caco-2 [1]; 10000 nM) [%] | cell viability (Calu-3 [2]; 1 nM) [%] | cell viability (Calu-3 [2]; 10 nM) [%] | cell viability (Calu-3 [2]; 100 nM) [%] | cell viability (Calu-3 [2]; 1000 nM) [%] | cell viability (Calu-3 [2]; 10000 nM) [%] | cell viability (HepG2 [3]; 1 nM) [%] | cell viability (HepG2 [3]; 10 nM) [%] | cell viability (HepG2 [3]; 100 nM) [%] | cell viability (HepG2 [3]; 1000 nM) [%] | cell viability (HepG2 [3]; 10000 nM) [%] | cell viability (U2OS [4]; 1 nM) [%] | cell viability (U2OS [4]; 10 nM) [%] | cell viability (U2OS [4]; 100 nM) [%] | cell viability (U2OS [4]; 1000 nM) [%] | cell viability (U2OS [4]; 10000 nM) [%] | cell viability (Vero E6 [5]; 1 nM) [%] | cell viability (Vero E6 [5]; 10 nM) [%] | cell viability (Vero E6 [5]; 100 nM) [%] | cell viability (Vero E6 [5]; 1000 nM) [%] | cell viability (Vero E6 [5]; 10000 nM) [%] | relative viability EC50 (Caco-2 [6]) [µM] | relative viability EC50 (Calu-3 [7]) [µM] | relative viability EC50 (HepG2 [8]) [µM] | relative viability EC50 (U2OS [9]) [µM] | relative viability EC50 (Vero E6 [10]) [µM] | drug sensitivity score (Caco-2 [11]) | drug sensitivity score (Calu-3 [12]) | drug sensitivity score (HepG2 [13]) | drug sensitivity score (U2OS [14]) | drug sensitivity score (Vero E6 [15]) |
| --- | --- | --- | --- | --- | --- | --- | --- | --- | --- | --- | --- | --- | --- | --- | --- | --- | --- | --- | --- | --- | --- | --- | --- | --- | --- | --- | --- | --- | --- | --- | --- | --- | --- | --- | --- |
| CC(C)[C@H](C(=O)Nc1ccc(C(=O)NO)cc1)c1ccccc1 [AR-42] | 101 | 95 | 97.6 | 18 | 1.2 | 96.5 | 90.5 | 83 | 36 | 12 | 91.7 | 103 | 75.3 | 18.6 | 0 | 98.9 | 97.3 | 86.5 | 15.4 | 0.3 | 97 | 95.4 | 88.7 | 5.2 | -0.1 | 0.498 | 0.371 | 0.271 | 0.328 | 0.26 | 15.3 | 14.2 | 18 | 17.2 | 18.9 |
| O=C1O[C@H]([C@@H](O)CO)C(O)=C1O [ASCORBIC ACID] | 103 | 95.9 | 100 | 100 | 98.4 | 105 | 95.5 | 110 | 96.3 | 108 | 99.6 | 98.3 | 108 | 93.4 | 101 | 109 | 98.8 | 99.8 | 100 | 102 | 99.7 | 112 | 106 | 103 | 103 | > 10 | > 10 | > 10 | > 10 | > 10 | 0 | 0 | 0 | 0 | 0 |
| O=CN1CCC(C(=O)NCCN2CCC(=C3c4ccccc4C=Cc4ccccc43)CC2)CC1 [AT-1015] | 101 | 108 | 104 | 105 | 93.8 | 93.2 | 103 | 89.2 | 97.7 | 88.7 | 104 | 99.9 | 98.2 | 102 | 77 | 96.3 | 97.4 | 94.8 | 96.8 | 91.4 | 104 | 108 | 110 | 103 | 99.8 | > 10 | > 10 | > 10 | > 10 | > 10 | 0 | 0 | 0.7 | 0 | 0 |
